This note sets out measurements from patent US8696867B2, “Disulfo-type fluorescent whitening agents” (Blankophor GmbH & Co. KG, priority 2009, dated 2014).

Molecules are shown by their SMILES.

Data set [1] can be described thus: Storage stability of approximately 20% aqueous solution. It is filed as physicochemical. The following applies: approximately 20% solution, ambient temperature and 4° C., without stirring. How it is done: The stability behavior was studied by storing an approximately 20% solution of FWA 1 and FWA 2, respectively, at ambient temperature and at 4° C., each without stirring. The aqueous brightener preparations have a shelf-life of more than 30 days both at ambient and low temperature.

Data set [2] is described as follows: Solubility of fluorescent whitening agent in distilled water (saturated solution). It is filed as physicochemical. The following applies: ambient temperature (about 22° C.), grams FWA dissolved in 100 g saturated FWA solution. How it is done:
The solubility of the fluorescent whitening agents was determined as follows: a dry powder of fluorescent whitening agent was added to 50 ml of distilled water until the saturation point was reached. The thus obtained saturated solution was filtered, dried and the dried residue was weighted.
The indicated percentages are based on the amount of grams of fluorescent whitening agent dissolved in 100 g of the corresponding saturated FWA solution.

Consider `CC(O)CN(CC(C)O)c1nc(Nc2ccc(C(=O)[O-])cc2)nc(Nc2ccc(/C=C/c3ccc(Nc4nc(Nc5ccc(C(=O)[O-])cc5)nc(N(CC(C)O)CC(C)O)n4)cc3S(=O)(=O)[O-])c(S(=O)(=O)[O-])c2)n1.[Na+].[Na+].[Na+].[Na+]` (stereo not shown) [FWA 2], for which the “crystalline precipitates on storage” value in data set [1] is “no crystalline precipitates”. This compound also returned a solubility in data set [2] of 24.2%.
Taken in the same sequence, the figures for `O=C([O-])c1ccc(Nc2nc(Nc3ccc(/C=C/c4ccc(Nc5nc(Nc6ccc(C(=O)[O-])cc6)nc(N(CCO)CCO)n5)cc4S(=O)(=O)[O-])c(S(=O)(=O)[O-])c3)nc(N(CCO)CCO)n2)cc1.[Na+].[Na+].[Na+].[Na+]` [FWA 1] were “no crystalline precipitates” and 27.8%.
